Laboratory results: US20260250289A1, “BICYCLIC HETEROCYCLES AND THEIR USE AS WRN INHIBITORS” (Novartis AG, priority 2022, published 2026)
Where two headings read alike, the source gives them in different places.

Tests used:
[1] = target: T1, WRN helicase (aa N517-P1238) (Homo sapiens, UniProt Q14191); experiment: WRN ATPase assay (DNA dependent ATP hydrolysis, ADP-Glo); assay type: biochemical; details: 3 hours pre-incubation, 300 micromolar ATP, FLAP26 DNA; geometric mean of at least 2
T1 construct: The core helicase motif of the WRN protein (aa N517-P1238) was produced for this assay; His (N); ZZ (N); 3C protease cleavage site (N); made in house; host or cells: Sf21 insect cells (baculovirus; virus and BIICs made in SF9)
How it was run: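 DNA-dependent ATP hydrolysis detected as ADP by ADP-Glo luminescence, using 300 μM ATP, 0.2 nM FLAP26 substrate and 10 nM WRN aa N517-P1238 (Tris pH 7.5 buffer, 2 mM MgCl2, 50 mM NaCl). IC50s fitted from normalized duplicate half-log dilutions; reported as geometric means of at least 2 replicates.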

DLD1-WRN-KO cells = experiment: Proliferation assay DLD1-WRN-KO (CellTiterGlo, off-target effects); assay type: cell-based; details: 96 hours, geometric mean of at least 2
How it was run: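 DLD1 cells with CRISPR knockout of WRN were exposed overnight-seeded to eight 3-fold compound dilutions (0.1% DMSO) for 96 h at 37 °C. Viability was read as ATP by CellTiterGlo luminescence against a day-0 plate, giving GI50 and residual viability at top concentration.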

SW48 cells = experiment: Proliferation assay SW48 (CellTiterGlo); assay type: cell-based; details: SW48 colon carcinoma cells, 96 hours, CellTiterGlo, geometric mean of at least 2, read-out: Proliferation Assay SW48 GI50
How it was run: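 SW48 cells, 2,000/well, treated after overnight seeding with eight 3-fold compound dilutions (0.1% DMSO) for 96 hours at 37° C. Viability read as ATP by CellTiterGlo luminescence, normalised to a day-0 plate and vehicle to give % growth; GI50 is geometric mean of ≥2 independent replicates.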

T1 sequence (Q14191 517-1238): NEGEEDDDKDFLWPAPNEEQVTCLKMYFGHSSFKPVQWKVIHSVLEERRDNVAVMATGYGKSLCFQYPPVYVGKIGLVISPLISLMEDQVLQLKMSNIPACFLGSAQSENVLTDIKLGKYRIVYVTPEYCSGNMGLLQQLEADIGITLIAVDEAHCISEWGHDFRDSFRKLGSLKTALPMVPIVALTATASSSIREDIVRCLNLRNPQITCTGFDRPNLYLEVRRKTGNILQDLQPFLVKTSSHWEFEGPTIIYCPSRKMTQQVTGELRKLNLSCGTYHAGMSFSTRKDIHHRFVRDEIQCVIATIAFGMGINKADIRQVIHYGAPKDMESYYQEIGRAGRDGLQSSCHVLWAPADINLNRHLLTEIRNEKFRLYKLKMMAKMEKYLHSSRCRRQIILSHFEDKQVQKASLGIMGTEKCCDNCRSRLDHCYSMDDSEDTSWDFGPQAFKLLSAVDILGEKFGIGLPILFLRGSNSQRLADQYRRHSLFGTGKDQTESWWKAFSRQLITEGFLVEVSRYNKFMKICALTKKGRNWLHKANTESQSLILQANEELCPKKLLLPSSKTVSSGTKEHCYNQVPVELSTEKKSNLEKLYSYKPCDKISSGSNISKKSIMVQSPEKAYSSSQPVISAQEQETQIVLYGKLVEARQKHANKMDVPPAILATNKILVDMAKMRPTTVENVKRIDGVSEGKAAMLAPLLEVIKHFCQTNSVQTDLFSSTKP

For COC1CC=C(c2nc3n(CC(=O)Nc4ccc(C(F)(F)F)cc4)c(C)c(N4CCN(C(C)=O)CC4)c(=O)n3n2)CC1 (stereo not drawn) [Example 107, 2-(6-(4-acetylpiperazin-1-yl)-2-(4-methoxycyclohex-1-en-1-yl)-5-methyl-7-oxo-[1,2,4]triazolo[1,5-a]pyrimidin-4(7H)-yl)-N-(4-(trifluoromethyl)phenyl)acetamide], the IC50 [1] was 200 nM, the GI50 (DLD1-WRN-KO cells) was > 10000 nM and the GI50 (SW48 cells; Homo sapiens, SW48, 96 h) was 3000 nM.
For CCc1c(N2CCN(C(=O)C3CCOC3)CC2)c(=O)n2nc(C3=CCCCO3)nc2n1CC(=O)Nc1ccc(C(F)(F)F)cc1 (stereo not drawn) [Example 61, 2-(2-(3,4-dihydro-2H-pyran-6-yl)-5-ethyl-7-oxo-6-(4-(tetrahydrofuran-3-carbonyl)piperazin-1-yl)-[1,2,4]triazolo[1,5-a]pyrimidin-4(7H)-yl)-N-(4-(trifluoromethyl)phenyl)acetamide], the IC50 [1] was 400 nM, the GI50 (DLD1-WRN-KO cells) was > 10000 nM and the GI50 (SW48 cells) was 4000 nM.
With Cc1c(C2CCN(C(=O)c3c(F)ccc(F)c3O)CC2)c(=O)n2nc(C3=CCOCC3)nc2n1CC(=O)Nc1ccc(C(F)(F)F)cc1 [Example 136, 2-(6-(1-(3,6-difluoro-2-hydroxybenzoyl)piperidin-4-yl)-2-(3,6-dihydro-2H-pyran-4-yl)-5-methyl-7-oxo-[1,2,4]triazolo[1,5-a]pyrimidin-4(7H)-yl)-N-(4-(trifluoromethyl)phenyl)acetamide] the IC50 [1] was 20 nM, the GI50 (DLD1-WRN-KO cells) was > 10000 nM and the GI50 (SW48 cells; Homo sapiens, SW48, 96 h) was 500 nM.
In the case of CC(=O)N1CCN(c2c(C)n(CC(=O)Nc3ccc(C(F)(F)F)cc3)c3nc(C4=CCN(C(=O)OC(C)(C)C)CC4)nn3c2=O)CC1 [Example 105, tert-butyl 4-(6-(4-acetylpiperazin-1-yl)-5-methyl-7-oxo-4-(2-oxo-2-((4-(trifluoromethyl)phenyl)amino)ethyl)-4,7-dihydro-[1,2,4]triazolo[1,5-a]pyrimidin-2-yl)-3,6-dihydropyridine-1(2H)-carboxylate], the IC50 [1] is reported as 100 nM, the GI50 (DLD1-WRN-KO cells) is reported as 5000 nM and the GI50 (SW48 cells; Homo sapiens, SW48, 96 h) is reported as 800 nM.
CC(=O)N1CCN(c2c(C3CC3)n(CC(=O)Nc3ccc(C(F)(F)F)cc3)c3nc(C4=CCOCC4)nn3c2=O)CC1 [Example 147, 2-(6-(4-acetylpiperazin-1-yl)-5-cyclopropyl-2-(3,6-dihydro-2H-pyran-4-yl)-7-oxo-[1,2,4]triazolo[1,5-a]pyrimidin-4(7H)-yl)-N-(4-(trifluoromethyl)phenyl)acetamide] was tested, and the IC50 [1] was 600 nM, the GI50 (DLD1-WRN-KO cells) was > 10000 nM and the GI50 (SW48 cells; Homo sapiens, SW48, 96 h) was 6000 nM.
In the case of CC(=O)N1CCN(c2c(C)n(CC(=O)Nc3ccc(C(F)(F)F)cc3)c3nc(N4CCC5(CCCO5)CC4)nn3c2=O)CC1 [Example 122, 2-(6-(4-acetylpiperazin-1-yl)-5-methyl-7-oxo-2-(1-oxa-8-azaspiro[4.5]decan-8-yl)-[1,2,4]triazolo[1,5-a]pyrimidin-4(7H)-yl)-N-(4-(trifluoromethyl)phenyl)acetamide], the IC50 [1] is reported as 700 nM, the GI50 (DLD1-WRN-KO cells) is reported as > 10000 nM and the GI50 (SW48 cells; Homo sapiens, SW48, 96 h) is reported as 5000 nM.
With COc1cccc(C(=O)N2CCN(c3c(C)n(CC(=O)Nc4ccc(C(F)(F)F)cc4)c4nc(C5=CCOCC5)nn4c3=O)CC2)c1N [Example 155, 2-(6-(4-(2-amino-3-methoxybenzoyl)piperazin-1-yl)-2-(3,6-dihydro-2H-pyran-4-yl)-5-methyl-7-oxo-[1,2,4]triazolo[1,5-a]pyrimidin-4(7H)-yl)-N-(4-(trifluoromethyl)phenyl)acetamide] the IC50 [1] was 100 nM, the GI50 (DLD1-WRN-KO cells) was > 10000 nM and the GI50 (SW48 cells; Homo sapiens, SW48, 96 h) was 2000 nM.
In the case of CC(=O)N1CCN(c2c(C)n(CC(=O)Nc3ccc(C(F)(F)F)cc3)c3nc(C4=CCOCC4)nn3c2=O)CC1 [Example 69, 2-(6-(4-acetylpiperazin-1-yl)-2-(3,6-dihydro-2H-pyran-4-yl)-5-methyl-7-oxo-[1,2,4]triazolo[1,5-a]pyrimidin-4(7H)-yl)-N-(4-(trifluoromethyl)phenyl)acetamide], the IC50 [1] is reported as 500 nM, the GI50 (DLD1-WRN-KO cells) is reported as > 10000 nM and the GI50 (SW48 cells; Homo sapiens, SW48, 96 h) is reported as 4000 nM.
For CC(=O)N1CCN(c2c(C)n(CC(=O)Nc3ccc(C(F)(F)F)cc3)c3nc(C4=CCCOC4)nn3c2=O)CC1 [Example 126, 2-(6-(4-acetylpiperazin-1-yl)-2-(5,6-dihydro-2H-pyran-3-yl)-5-methyl-7-oxo-[1,2,4]triazolo[1,5-a]pyrimidin-4(7H)-yl)-N-(4-(trifluoromethyl)phenyl)acetamide], the IC50 [1] was 800 nM, the GI50 (DLD1-WRN-KO cells) was > 10000 nM and the GI50 (SW48 cells; Homo sapiens, SW48, 96 h) was 4000 nM.
For Cc1c(N2CCN(C(=O)c3c(F)ccnc3O)CC2)c(=O)n2nc(C3=CCOCC3)nc2n1CC(=O)Nc1ccc(C(F)(F)F)cc1 [Example 28, 2-(2-(3,6-dihydro-2H-pyran-4-yl)-6-(4-(4-fluoro-2-hydroxynicotinoyl)piperazin-1-yl)-5-methyl-7-oxo-[1,2,4]triazolo[1,5-a]pyrimidin-4(7H)-yl)-N-(4-(trifluoromethyl)phenyl)acetamide], the IC50 [1] was 500 nM, the GI50 (DLD1-WRN-KO cells) was > 10000 nM and the GI50 (SW48 cells; Homo sapiens, SW48, 96 h) was > 10000 nM.
CC(=O)N1CCN(c2c(C)n(CC(=O)Nc3ccc(C(F)(F)F)nc3Cl)c3nc(C4=CCOCC4)nn3c2=O)CC1 [Example 98, 2-(6-(4-acetylpiperazin-1-yl)-2-(3,6-dihydro-2H-pyran-4-yl)-5-methyl-7-oxo-[1,2,4]triazolo[1,5-a]pyrimidin-4(7H)-yl)-N-(2-chloro-6-(trifluoromethyl)pyridin-3-yl)acetamide] was tested, and the IC50 [1] was 1000 nM, the GI50 (DLD1-WRN-KO cells) was > 10000 nM and the GI50 (SW48 cells; Homo sapiens, SW48, 96 h) was 6000 nM.
For CC(=O)N1CCN(c2c(C)n(CC(=O)Nc3ccc(C(F)(F)F)cc3C)c3nc(C4=CCOCC4)nn3c2=O)CC1 [Example 64, 2-(6-(4-acetylpiperazin-1-yl)-2-(3,6-dihydro-2H-pyran-4-yl)-5-methyl-7-oxo-[1,2,4]triazolo[1,5-a]pyrimidin-4(7H)-yl)-N-(2-methyl-4-(trifluoromethyl)phenyl)acetamide], the IC50 [1] was 900 nM, the GI50 (DLD1-WRN-KO cells) was > 10000 nM and the GI50 (SW48 cells; Homo sapiens, SW48, 96 h) was 4000 nM.
With CC(=O)N1CC=C(c2nc3n(CC(=O)Nc4ccc(S(F)(F)(F)(F)F)cc4)c(C)c(N4CCN(C(C)=O)CC4)c(=O)n3n2)CC1 [Example 71, 2-(2-(1-acetyl-1,2,3,6-tetrahydropyridin-4-yl)-6-(4-acetylpiperazin-1-yl)-5-methyl-7-oxo-[1,2,4]triazolo[1,5-a]pyrimidin-4(7H)-yl)-N-(4-(pentafluoro-l6-sulfaneyl)phenyl)acetamide] the IC50 [1] was 90 nM, the GI50 (DLD1-WRN-KO cells) was > 10000 nM and the GI50 (SW48 cells; Homo sapiens, SW48, 96 h) was 5000 nM.
With Cc1c(N2CCN(C(=O)c3ccncc3O)CC2)c(=O)n2nc(C3=CCOCC3)nc2n1CC(=O)Nc1ccc(C(F)(F)F)cc1 [Example 36, 2-(2-(3,6-dihydro-2H-pyran-4-yl)-6-(4-(3-hydroxyisonicotinoyl)piperazin-1-yl)-5-methyl-7-oxo-[1,2,4]triazolo[1,5-a]pyrimidin-4(7H)-yl)-N-(4-(trifluoromethyl)phenyl)acetamide] the IC50 [1] was 100 nM, the GI50 (DLD1-WRN-KO cells) was > 10000 nM and the GI50 (SW48 cells; Homo sapiens, SW48, 96 h) was > 10000 nM.
CC(=O)N1CCN(c2c(C)n(CC(=O)Nc3cc(C)c(C(F)(F)F)cc3Cl)c3nc(C4=CCOCC4)nn3c2=O)CC1 [Example 89, 2-(6-(4-acetylpiperazin-1-yl)-2-(3,6-dihydro-2H-pyran-4-yl)-5-methyl-7-oxo-[1,2,4]triazolo[1,5-a]pyrimidin-4(7H)-yl)-N-(2-chloro-5-methyl-4-(trifluoromethyl)phenyl)acetamide] was tested, and the IC50 [1] was 600 nM, the GI50 (DLD1-WRN-KO cells) was > 10000 nM and the GI50 (SW48 cells; Homo sapiens, SW48, 96 h) was 3000 nM.
In the case of Cc1c(N2CCN(C(=O)c3ncccc3N)CC2)c(=O)n2nc(N3CCOCC3)nc2n1CC(=O)Nc1ccc(C(F)(F)F)cc1 [Example 160, 2-(6-(4-(3-aminopicolinoyl)piperazin-1-yl)-5-methyl-2-morpholino-7-oxo-[1,2,4]triazolo[1,5-a]pyrimidin-4(7H)-yl)-N-(4-(trifluoromethyl)phenyl)acetamide], the IC50 [1] is reported as 600 nM, the GI50 (DLD1-WRN-KO cells) is reported as > 10000 nM and the GI50 (SW48 cells; Homo sapiens, SW48, 96 h) is reported as 6000 nM.
For CCc1c(N2CCN(C(=O)c3c(F)ccc(F)c3O)CC2)c(=O)n2nc(C3=CCOCC3)nc2n1CC(=O)Nc1ccc(C(F)(F)F)cc1C [Example 68, 2-(6-(4-(3,6-difluoro-2-hydroxybenzoyl)piperazin-1-yl)-2-(3,6-dihydro-2H-pyran-4-yl)-5-ethyl-7-oxo-[1,2,4]triazolo[1,5-a]pyrimidin-4(7H)-yl)-N-(2-methyl-4-(trifluoromethyl)phenyl)acetamide], the IC50 [1] was 20 nM, the GI50 (DLD1-WRN-KO cells) was > 10000 nM and the GI50 (SW48 cells; Homo sapiens, SW48, 96 h) was 100 nM.
For CC(=O)N1CCN(c2c(C)n(CC(=O)Nc3ccc(C(F)(F)F)cc3)c3nc(N4CCC(N(C)CC(F)F)CC4)nn3c2=O)CC1 [Example 113, 2-(6-(4-acetylpiperazin-1-yl)-2-(4-((2,2-difluoroethyl)(methyl)amino)piperidin-1-yl)-5-methyl-7-oxo-[1,2,4]triazolo[1,5-a]pyrimidin-4(7H)-yl)-N-(4-(trifluoromethyl)phenyl)acetamide], the IC50 [1] was 300 nM, the GI50 (DLD1-WRN-KO cells) was > 10000 nM and the GI50 (SW48 cells; Homo sapiens, SW48, 96 h) was 5000 nM.
